A word on the pIC50: it is the negative decadic logarithm of the IC50, by convention in mol/L.

Series [1] addresses Notch signal transduction pathway. In words: In vitro Notch signal transduction pathway activity assay (DR215/F2 luciferase reporter). Type of series: cell-based, human. The protocol: The compounds were dissolved in dimethyl sulfoxide (DMSO) at 10 mM stock solution, aliquoted and stored at −4° C. until use, then diluted in PBS or cell culture medium. In the experimental settings, controls containing increasing concentrations of DMSO, corresponding to the amount of DMSO of the diluted compounds were always included. For in vivo experiments, the compounds were dissolved in 0.9% NaCl, incubated 30 min at 40° C. and sonicated for 5 min.
The requirement of proteolytic activation of the prodrugs to inhibit Notch cleavage by the γ-secretase, was investigated using a reporter assay (Table 3). The DR215/F2 cell line expresses a reporter construct designed to monitor the activity of the Notch signal transduction pathway. The DR215/F2 cell line 39 carries two transgenes: the firefly luciferase reporter gene expressed under the control of the Gal4 promoter and the human Notch1 activator gene fused with the yeast Gal4 transcription factor. This assay confirmed that the prodrugs were able to inhibit γ-secretase and the activation of the Notch pathway. The DR215/F2 cell reporter assay was also used to determine the IC50 for blockade of the Notch pathway by all the compounds designed and prepared.
The values were determined using the 215/F2 reporter cell line for Notch activation by the γ-secretase. All values are the mean of at least 3 experiments.
The preparation and characterization of rat brain-derived EC219 endothelial cells have been described in Juillerat-Jeanneret, L. et al. In Vitro Cell. Dev. Biol. 1992, 28A, 537-543. These cells express high levels of APA and γ-GT activities and can be used for determining kinetics in living cells, and were chosen as APA- and γ-GT-positive representative cell models. EC219 cells were grown in DMEM medium containing 1 g/l glucose, 10% heat-inactivated fetal calf serum (FCS, EuroClone, UK) supplemented with 100 U/mL penicillin and 100 μg/mL streptomycin (P/S) on uncoated cell culture plastic ware. The HEK293 and HK2 human kidney cells are available from the ATCC (American Tissue Culture Collection, Manassas, Va., USA). HEK293 cells were grown on uncoated cell culture plastic ware in Iscove modified Dulbecco medium (IMDM, Life Technologies) containing 10% FCS and P/S. HK2 cells were grown on uncoated cell culture plastic ware in DMEM/F-12 GlutaMAX medium (Gibco) containing 5% FCS, P/S, 1% ITS (1.0 mg/ml bovine insulin, 0.55 mg/ml human transferrin and 0.5 μg/ml sodium selenite, Sigma-Aldrich) and 5 ng/ml hydrocortisone. The human HEK293-derived DR215/F2 embryonic kidney cell line, stably transfected with pFR Luc and APP-Notch Gal (plasmid DR215) as described in WO 2006/061136 A2 and Brockhaus, M. Neuroreport 1998 9, 1481-1486, were maintained using IMDM with 10% FCS supplemented with P/S and kept under double-selection with 150 μg/ml G-418 and 50 μg/ml hygromycin B on coated (1:100 Poly-L-lysine) cell culture plastic ware. In this assay, the Notch-Gal4 protein is bound to the cell membrane via its trans-membrane domain. The Notch intracellular domain is released by proteolytic cleavage mediated by the γ-secretase and moves to the cell nucleus where it activates the reporter luciferase gene transcript. Inhibition of γ-secretase thus decreases luciferase activity. Briefly, cultures were grown in 96-well microplates to 80% confluence; the cells were then washed in PBS and exposed to decreasing concentrations of the γ-secretase-inhibitor analogues in complete IMDM culture medium without red phenol at 37° C. for 19 h. Then 75 μl of supernatant from each well was removed and the luciferase activity was determined by adding 25 μl of Steady-Glo luciferase assay reagent (Promega).
A general note: In a reporter assay the amount or activity of a reporter protein is the signal.

For a further series, the system named is EC219 cells. In words: Extracellular release of the γ-secretase inhibitor from prodrugs by EC219 endothelial cells. In kind it is in vitro ADME, rat. The settings on record: HEK293, 215/F2, HK2 and EC219 cells, 20 μM in PBS, 19 h. On the procedure: FIG. 2A. Extracellular release of amine-SecrI (11a) metabolites for α-Glu- and γ-Glu-secretase inhibitor prodrugs. The prodrugs were added to the cells for 19 h, then the supernatants were harvested and analyzed for SecrI (8), amine-SecrI (11a), the prodrugs 13a, 13b, 15a, 15b and (for 13a, 15a) also the correponding deacetylated metabolites.
Cpd added: 20 μM in PBS, 19 h incubation. SecrI (8) is stable when added to cells for 19 h; free SecrI (8) was never detected from any prodrug.
The preparation and characterization of rat brain-derived EC219 endothelial cells have been described in Juillerat-Jeanneret, L. et al. In Vitro Cell. Dev. Biol. 1992, 28A, 537-543. These cells express high levels of APA and γ-GT activities and can be used for determining kinetics in living cells, and were chosen as APA- and γ-GT-positive representative cell models. EC219 cells were grown in DMEM medium containing 1 g/l glucose, 10% heat-inactivated fetal calf serum (FCS, EuroClone, UK) supplemented with 100 U/mL penicillin and 100 μg/mL streptomycin (P/S) on uncoated cell culture plastic ware. The HEK293 and HK2 human kidney cells are available from the ATCC (American Tissue Culture Collection, Manassas, Va., USA). HEK293 cells were grown on uncoated cell culture plastic ware in Iscove modified Dulbecco medium (IMDM, Life Technologies) containing 10% FCS and P/S. HK2 cells were grown on uncoated cell culture plastic ware in DMEM/F-12 GlutaMAX medium (Gibco) containing 5% FCS, P/S, 1% ITS (1.0 mg/ml bovine insulin, 0.55 mg/ml human transferrin and 0.5 μg/ml sodium selenite, Sigma-Aldrich) and 5 ng/ml hydrocortisone. […] Then 75 μl of supernatant from each well was removed and the luciferase activity was determined by adding 25 μl of Steady-Glo luciferase assay reagent (Promega).
A first screen of the different γ-secretase prodrugs was performed in vitro to determine the cleavage rate of each compound and ex-vivo in mouse kidney tissues. Extracellular release of the γ-secretase inhibitor from prodrugs by human kidney cells (HEK293, HEK293-derived Notch-reporter 215/F2 cells28,39 and HK2 cells) as well as the rat brain-derived EC219 endothelial cells which express very high levels of APA and γ-GT activities were evaluated for liberating active inhibitors SecrI (8) or amine-SecrI (11a) (FIG. 2A).
All samples were analyzed using protein precipitation followed by LC-MS/MS analysis. […] One μL of the supernatant was analyzed by LC/MS. […]

The target of a further series is γ-secretase (Homo sapiens, UniProt P49768). In words: In vitro γ-secretase activity assay (cell-free). In kind it is biochemical. The settings on record: HEK293 membrane fraction, recombinant APP substrate, Abeta ELISA. The protocol: The γ-secretase activity of the γ-secretase inhibiting alcohols of formula (A) of present invention was determined in cell-free in vitro assays where e.g., a cell lysate containing the γ-secretase complex is incubated with a suitable β-Amyloid Precursor Protein (APP)-derived substrate which is cleaved to the Abeta peptides. The amount of produced peptides can be determined with specific ELISA assays. Cell lines of neuronal origin secrete Abeta peptides which can be measured with the specific ELISA assay. Treatment with compounds which inhibit γ-secretase leads to a reduction of secreted Abeta thus providing a measure of inhibition.
The in vitro assay of γ-secretase activity uses a HEK293 membrane fraction as a source of γ-secretase and a recombinant APP substrate. Latter consist of the C-terminal 100 amino acids of human APP fused to a 6×Histidin tail for purification which is expressed in E. coli in a regulatable expression vector, e.g. pEt15. This recombinant protein corresponds to the truncated APP fragment which results after […] of the extracellular domain and which constitutes the γ-secretase substrate. […] The Abeta peptides which are produced by γ-secretase cleavage of the substrate are detected by specific ELISA assays as described (Brockhaus M et al, Neuroreport 9(7), 1481-1486 (1998).

pIC50: −log10 of the molar value. Counter-ions that a name gives are not always drawn.

Regarding `C[C@H]1Oc2ccc(F)cc2N(CCOC(=O)NCCNC(=O)CC[C@H](N)C(=O)O)C(=O)[C@H]1NC(=O)[C@@](C)(O)C(=O)NCC(F)(F)C(F)(F)F` [Compound 13b, (S)-2-Amino-5-(2-((2-((2R,3S)-7-fluoro-3-((S)-2-hydroxy-2-methyl-3-oxo-3-(2,2,3,3,3-pentafluoropropylamino)propanamido)-2-methyl-4-oxo-3,4-dihydrobenzo[b][1,4]oxazepin-5(2H)-yl)ethoxy)carbonylamino)ethylamino)-5-oxopentanoic acid hydrochloride], the “IC50 for blockade of the Notch pathway, range in words” value in series [1] (DR215/F2 cell reporter assay) is on record as “μM range”. The compound also showed a pIC50 in series [1] (Homo sapiens, 215/F2 reporter cell line, 19 h, mean of at least 3 experiments) of 5.96. Besides, in the series on EC219 cells, the “hydrolysis by γ-GT” value is recorded as “also not hydrolyzed by γ-GT”.
On to `C[C@H]1Oc2ccc(F)cc2N(CCO)C(=O)[C@H]1NC(=O)C(C)(C)C(=O)NCC(F)(F)C(F)(F)F` [Example 53, N-[(6R,7S)-2-Fluoro-9-(2-hydroxy-ethyl)-6-methyl-8-oxo-6,7,8,9-tetrahydro-5-oxa-9-aza-benzocyclohepten-7-yl]-2,2-dimethyl-N′-(2,2,3,3,3-pentafluoro-propyl)-malonamide], for which the pIC50 at γ-secretase was 7.05.

These data come from US10632127B2, “Targeted notch pathway inhibitors” (Hoffmann-La Roche Inc., priority 2015, dated 2020).
